According to US9474774B2, “Pyridine alkaloids, preparation process thereof, and the uses of the pyridine alkaloids” (FOOD INDUSTRY RESEARCH AND DEVELOPMENT INSTITUTE, priority 2010, dated 2016):
Values joined by “and” are separate entries in the source; they are usually repeats but may differ in a detail not shown here. Equal entries are not always repeated. Where two headings read alike, the source gives them in different places.

Tests used:
adiponectin = experiment: Cytosolic adiponectin ELISA in differentiated 3T3-L1 cells; format: cell-based, Mouse; settings: insulin model and DMI model, 5 μg/mL (FIG. 7)
Procedure: 3T3-L1 cells were treated with Monasnicotinates A, B, C and D (prepared in Example 3) as described in Example 5. Nuclear and cytosolic proteins of the differentiated 3T3-L1 cells were extracted and the nuclear PPARγ and cytosolic adiponectin contents were analyzed using commercial kits.
(§1) 3T3-L1 cells were incubated and differentiated on petri dish (9 cm) for 9 days and washed with PBS. 1 ml of buffer A working solution (Affymetrix® Nuclear Extraction Kits, Panomics, Inc.; freshly prepared according to the instructions) was added to the petri dish, and the petri dish was placed on ice and shaken for 10 minutes on a shaker. Cells on the petri dish were transferred to a 1.5 ml centrifuge tube and centrifuged at 14,000 rpm for 3 minutes. The supernatant, the cytosol fraction, was collected for further analysis. 0.5 ml of buffer B working solution (Affymetrix® Nuclear Extraction Kits, Panomics, Inc.; freshly prepared according to the instructions) was added to the centrifuge tube to re-suspend the cell pellet and the centrifuge tube was placed on ice and shaken for two hours on a shaker. The centrifuge tube was then centrifuged at 14,000 rpm for 5 minutes. The supernatant, the nucleus fraction, was collected for further analysis.
Cytosolic adiponectin in the cytosol fraction was analyzed using Quantikine Mouse Adiponectin immunoassay (R&D systems) according to the instructions.

RAW264.7 = experiment: MTT cell viability assay; format: cell-based, murine
Procedure: (§2) The murine macrophage cell line RAW264.7 (BCRC 60001=ATCC TIB-71) was cultured in Dulbecco's modified Eagle's medium (DMEM, Gibco BRL Life Technologies, Inc.) supplemented with 10% heat inactivated fetal bovine serum (FBS) and incubated at 37° C. in a humidified 5% CO2 atmosphere with a 96-well flat-bottomed culture plate. After 24 hours, the condition medium was replaced with fresh DMEM and FBS. Then the three test compounds, Monasnicotinates A, C and D, (0, 1, 5, 10, and 20 μg/mL) were added respectively in the presence of lipopolysaccharide (LPS, 1 μg/mL; Sigma, Cat no: L-2654), and the plates were incubated at the same condition for 24 hours.
(§3) The cultured cells were then centrifuged and the supernatants were used for NO production measurement, with a MTT (3-(4,5-dimethylthiazol-2yl)-2,5-diphenyl tetrazolium bromide) assay to determine cell viability. The supernatant was mixed with an equal volume of the Griess reagent (1% sulfanilamide, 0.1% N-(1-naphthyl)ethyl-enediamine dihydrochloride in 2.5% phosphoric acid solution) and incubated for 10 min at room temperature. Nitrite concentration was determined by measuring the absorbance at 540 nm using an ELISA plate reader (μ Quant) (see Mosman, T., 1983, “Rapid colorimetric assay for cellular growth and survival: application to proliferation and cytotoxicity assays.” J. Immunol. Methods, 65: 55-63). The MTT colorimetric assay was modified from that of Mosmann (see Johansson, M., et al., 2002, “Biologically active secondary metabolites from the ascomycete A111-95.” J. Antibiot., 55: 104-106). The test is based upon the selective ability of living cells to reduce the yellow soluble salt, MTT, to a purple-blue insoluble formazan. MTT (Merck; dissolved in phosphate-buffered saline at 5 mg/mL) solution was added onto the attached cells mentioned above (10 μl per 100 μl culture) and incubated at 37° C. for 4 hours. Then, DMSO was added and the amount of colored formazan metabolite formed was determined by absorbance at 550 nm. The optical density of formazan formed in control (untreated) cells was taken as 100% viability.

PPARγ [1] = target: T1, PPARγ (Homo sapiens, UniProt P37231); experiment: LanthaScreen TR-FRET PPARγ competitive binding assay
T1 construct: purchased Invitrogen
T1 sequence (P37231 204-505 limits assumed): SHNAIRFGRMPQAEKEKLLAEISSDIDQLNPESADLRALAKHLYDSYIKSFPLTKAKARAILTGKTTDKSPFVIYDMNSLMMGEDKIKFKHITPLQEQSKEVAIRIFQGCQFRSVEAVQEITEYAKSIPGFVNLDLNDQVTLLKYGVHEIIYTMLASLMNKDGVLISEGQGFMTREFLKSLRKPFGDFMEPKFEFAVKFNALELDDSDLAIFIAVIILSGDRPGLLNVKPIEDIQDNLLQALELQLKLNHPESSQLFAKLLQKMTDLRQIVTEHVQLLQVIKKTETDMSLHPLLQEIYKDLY
Procedure: Monasnicotinates A, B, C and D were prepared according to Example 3 and Ethanol and ethyl acetate extracts of BCRC 930146-fermented rice were prepared according to Example 7. The binding activity of Monasnicotinates A, B, C and D and ethanol and ethyl acetate extracts of BCRC 930146-fermented rice to PPARγ and PPARα were analyzed using competitive binding assay kits (LanthaScreen TR-FRET PPARγ Binding Assay and Invitrogen PPARα Competitive Binding Assay) according to their instructions. Troglitazone and arachidonic acid were used as reference substances for PPARγ and PPARα ligand, respectively.

3T3-L1 preadipocytes [2] = experiment: 3T3-L1 preadipocyte differentiation, DMI differentiation model; format: cell-based; settings: for triglyceride droplets under inverted microscope: 5 μg/ml, vs DMI control; for TG (%): sample concentration 5 μg/ml, control = 100
Procedure: (§4) Preadipocytes were prepared according to the method described by Waki et al., (2007, “The small molecule harmine is an antidiabetic cell-type-specific regulator of PPARγ expression.” Cell Metabolism, 5(5): 357-370) and Huang et al., (2005, “Herbal or natural medicines as modulators of peroxisome proliferator-activated receptors and related nuclear receptors for therapy of metabolic syndrome.” Basic and Clinical Pharmacology and Toxicology, 96: 3-14.). Preadipocytes were cultured in DMEM (Dulbecco's Modified Eagle's Medium-high glucose, Sigma D-7777) containing 10% of fetal bovine serum (FBS) and incubated at 37° C. in a 5% CO2 incubator.
(§5) Before the differentiation induction experiments, the cells were plated into either 96- or 24-well plates (the concentration of cells in each well was about 2×10^4/cm^2). The plates were incubated for about two days to allow the cells to proliferate to confluence, and then maintained for another two days. The medium was changed to different differentiation media according to different experiments. The day of switching to differentiation medium was designated as day zero.
The differentiation medium used in DMI differentiation model comprised an three-in-one differentiation inducer (DMI): dexamethasone (Sigma D-4902, dissolved in ethanol to produce a 0.25M stock solution), isobutyl-methylxanthine (Sigma 1-5879, dissolved in DMSO to produce a 0.5M stock solution), and insulin (Sigma I-6634, dissolved in 0.01N HCl to produce a 10 mg/ml stock solution). The final concentrations of dexamethasone, isobutyl-methylxanthine and insulin were 0.25 μM, 0.5 mM and 5 μg/ml, respectively.
The four test compounds, Monasnicotinates A, B, C and D, were dissolved in DMSO respectively to produce a 5 mg/ml stock solution. One ml of the differentiation medium containing test sample was added to each well of the 24-well 3T3-L1 preadipocyte plates (the final concentration of the sample in each well was 5 μg/ml). The control group was the culture with only the differentiation medium and no sample. The cultures were incubated at 37° C. in a 5% CO2 incubator for three days, and then the medium was replaced by DMEM with 10% FBS. The cultures were maintained until day 9 or day 10, and the amounts of triglyceride in the cells were analyzed. The extents of differentiation (the amounts of oil droplets) were also examined under an inverted microscope.
(§6) The 96-well plates were rinsed with PBS, and 200 μl of PBS and 5 μl of AdipoRed reagent (Lonze Walkersville, Inc., Walkersville, Md., USA, Catalog No. PT-7009) were added to each well. After 10 to 15 minutes, the plates were read with a spectrofluorometer (Infinite M200) set at an excitation wavelength of 485 nm and an emission wavelength of 572 nm. The fluorescent data of the experiment group was divided by the fluorescent data of the control group to obtain a percentage of induction activity.
(§7) The 24-well plates were rinsed with PBS, and the cells were washed off with 0.1 ml of 1% Triton λ 100 per well. The cells were then frozen, thawed and centrifuged (10,000 rpm/5 min) and the supernatant were collected. An aliquot of 0.05 ml of the supernatant was analyzed using Triglycerol assay Kit (Audit Diagnostics, Ltd.).
(§8) The protein amounts were analyzed using Bio-Rad Dc Protein assay reagent (Bio-Rad). The triglyceride concentration was divided by the protein concentration obtained using Bio-Rad Dc Protein assay to calculated the amount (μg) of triglyceride per μg protein. The triglyceride amounts of the experiment groups were divided by those of the control groups to determine the differentiation induction activity of the samples.
(§9) 3T3-L1 preadipocytes differentiation assay was conduct according to Example 5.

3T3-L1 preadipocytes [3] = experiment: 3T3-L1 preadipocyte differentiation, insulin differentiation model; format: cell-based; settings: sample concentration 2 μg/ml, control = 100
Procedure: as §4, §5
The differentiation medium used in insulin differentiation model was DMEM with 10% FBS comprising 10 μg/ml of insulin. Differentiation media containing each of the four test compounds, Monasnicotinates A, B, C and D, were added to each well of the 24- or 96-well 3T3-L1 preadipocyte plates (the final concentration of the test compounds in each well is 2 μg/ml). The control group was the culture with only the differentiation medium and no sample. The cultures were incubated at 37° C. in a 5% CO2 incubator for seven days (during the period, the differentiation medium and sample were replaced with fresh ones twice), and then the medium was replaced by DMEM with 10% FBS. The cultures were maintained until day 9 or day 10. The cells of the experiment groups and control groups at day 9 or day 10 were stained with AdipoRed and the concentrations of triglyceride were analyzed.
as §6, §7, §8, §9

[4] = test system: LPS-stimulated macrophage cells RAW264.7; experiment: Inhibition of NO production induced by LPS (Griess reagent); format: cell-based, murine; settings: Mus musculus, LPS 1 μg/mL, 24 hours
Procedure: as §2, §3

PPARγ [5] = experiment: Nuclear PPARγ ELISA in differentiated 3T3-L1 cells; format: cell-based; settings: final sample concentration 5 μg/mL, control: medium only
Procedure: Nuclear and cytosolic proteins of the differentiated 3T3-L1 cells were extracted and the nuclear PPARγ and cytosolic adiponectin contents were analyzed using commercial kits.
as §1
Nuclear PPARγ in the nucleus fraction was analyzed using Transcription Factor PPARγ ELISA Kit (Panomics, Inc.) according to the instructions.

[6] = test system: LPS-stimulated macrophage cells RAW264.7; settings: literature value; read-out: IC50, production of NO by LPS-stimulated RAW264.7 (reported, Motai and Kitanaka 2005); cited from earlier work

Row | SMILES | concentration of cytosolic adiponectin (adiponectin) | Cytotoxicity (MTT assay) (RAW264.7; 1-10 μg/mL, with LPS treatment for 24 hours) | IC50 (PPARγ [1]) | triglyceride droplets under inverted microscope (3T3-L1 preadipocytes [2]) | TG (%) (3T3-L1 preadipocytes [2]) | AdipoRed (%) (3T3-L1 preadipocytes [3]) | TG (%) (3T3-L1 preadipocytes [3]) | IC50 [4] | PPARγ expression (% of control) (PPARγ [5]; DMI model) | PPARγ expression (% of control) (PPARγ [5]; Insulin model) | Cytotoxicity (MTT assay) (RAW264.7; at 10 μg/mL) | Cytotoxicity (MTT assay) (RAW264.7; 1-20 μg/mL, with LPS treatment for 24 hours) | IC50 [6]
1 | C/C=C/c1cc(/C=C(\CC(=O)CCCCC)C(C)=O)c(C(=O)OC)cn1 [Monasnicotinate A, methyl-4-((E)-2-acetyl-4-oxonon-1-enyl)-6-((E)-prop-1-enyl)nicotinate] | increase | did not show any significant cytotoxicity | 42 µM | more triglyceride droplets than the control culture | 159% | 159% | 128% | 5.72 µg/mL and 16 µM | 100 ± 7 % of control | 139 ± 1 % of control |  |  | 
2 | C/C=C/c1cc(/C=C(\CC(=O)CCCCC)C(C)=O)c(C(=O)OCC)cn1 [Monasnicotinate B, ethyl-4-((E)-2-acetyl-4-oxonon-1-enyl)-6-((E)-prop-1-enyl)nicotinate] | increase |  | 11 µM | more triglyceride droplets than the control culture | 175% | 287% | 132% |  | 147 ± 2 % of control | 237 ± 9 % of control |  |  | 
3 | C/C=C/c1cc(/C=C(\CC(=O)CCCCCCC)C(C)=O)c(C(=O)OC)cn1 [Monasnicotinate C, methyl-4-((E)-2-acetyl-4-oxoundec-1-enyl)-6-((E)-prop-1-enyl)nicotinate] | increase |  | 18.2 µM | more triglyceride droplets than the control culture | 132% | 209% | 145% |  | 115 ± 1 % of control | 333 ± 15 % of control | significant cytotoxic effect |  | 
4 | CCCCCC(=O)C/C(=C\c1cc(CCC)ncc1C(=O)OC)C(C)=O [Monasnicotinate D, (E)-methyl-4-(2-acetyl-4-oxonon-1-enyl)-6-propylnicotinate] | increase |  | 64.5 µM | more triglyceride droplets than the control culture | 204% | 247% | 169% | 9.4 µg/mL and 24.8 µM | 166 ± 5 % of control | 424 ± 19 % of control |  | did not show any significant cytotoxicity | 
5 | O=c1c(O)c(-c2ccc(O)c(O)c2)oc2cc(O)cc(O)c12 [quercetin, reference compound] |  |  |  |  |  |  |  | 26.4 µM |  |  |  |  | 26.8 µM
